The assay deals with FOXM1 and PD-L1. In words: Immunoblotting of FOXM1 and PD-L1 after FDI-6 or RCM1 treatment. It is filed as cell-based, human. The note with it: lung cancer cell line (PC9) and colorectal cancer cell line (SW480). (In general: Immunoblotting shows a protein as a band on a membrane.)

Protocol: Human lung cancer cell lines (H1299, PC9), colorectal cancer cell lines (HCT116, SW480), and brain tumor cell lines (U118) were purchased from the American Type Culture Collection (Manassas, VA, USA). H1299, PC9, U118, and SW480 cells were cultured in Roswell Park Memorial Institute (RPMI) medium supplemented with 10% FBS and 1% penicillin/streptomycin, and HCT116 cells were cultured in McCoy's 5A medium supplemented with 10% FBS and 1% penicillin/streptomycin. Cells were maintained at 37° C. in a humidified incubator with 5% CO2.
After washing, appropriate secondary antibodies conjugated to horseradish peroxidase were bound to the membrane, and protein bands were detected using a chemiluminescence kit (Thermo Fisher Scientific, Carlsbad, CA, USA).

On to `Nc1c(C(=O)Nc2ccc(F)cc2)sc2nc(-c3cccs3)cc(C(F)(F)F)c12` [FDI-6], for which the “FOXM1 and PD-L1 expression” value is given as “significantly decreased”.

The record behind these values is patent US20260248881A1, “PHARMACEUTICAL COMPOSITION COMPRISING FOXM1 INHIBITOR AND IMMUNE CHECKPOINT INHIBITOR FOR PREVENTING OR TREATING CANCER” (National Cancer Center, priority 2022, published 2026).
